# Data reported in US11739122B2, “Glycopeptide antibiotic compounds, methods for producing the same, and uses thereof” (Academia Sinica, priority 2019, dated 2023).
# What was measured:
# Test in all cases: MIC, broth microdilution
# MRSA ATCC 43300 = assay type: cell-based, Staphylococcus aureus; conditions: MRSA ATCC 43300
# Procedure: (§1) Determination of Minimal Inhibitory Concentration (MIC) for Vancomycin, Teicoplanin and Tei-Analogs Versus Selected Strains
# (§2) MICs were determined by the broth microdilution method. Specifically, 12 Colonies of the test strain were picked up from 18-24 hour agar cultures and freshly inoculated into broth mediums until reaching the turbidity of a 0.5 McFarland standard. The broth culture was adjusted with broth medium to approximately 1×10^8 CFUmL^−1. […] The plates were incubated in 37° C. for 18-24 hours and monitored for the wells of the positive control, where cells grew, and the wells of the negative control, where wells should not grow. The MIC value was determined for the concentration of a test compound, at which there was no visible growth in the well.
# MRSA ATCC 700698 hVISA = assay type: cell-based, Staphylococcus aureus; conditions: MRSA ATCC 700698 hVISA
# Procedure: as §1, §2
# MRSA ATCC 700787 VRSA = assay type: cell-based, Staphylococcus aureus; conditions: MRSA ATCC 700787 VRSA
# Procedure: as §1, §2
# MRSA ATCC 700789 VRSA = assay type: cell-based, Staphylococcus aureus; conditions: MRSA ATCC 700789 VRSA
# Procedure: as §1, §2
# MRSA ATCC BAA-38 = assay type: cell-based, Staphylococcus aureus; conditions: MRSA ATCC BAA-38
# Procedure: as §1, §2
# MRSA ATCC BAA-39 = assay type: cell-based, Staphylococcus aureus; conditions: MRSA ATCC BAA-39
# Procedure: as §1, §2
# MRSA ATCC BAA-44 = assay type: cell-based, Staphylococcus aureus; conditions: MRSA ATCC BAA-44
# Procedure: as §1, §2
# S. aureus ATCC 29213 = assay type: cell-based, Staphylococcus aureus; conditions: SA ATCC 29213
# Procedure: as §1, §2
# E. faecalis ATCC 29302 = assay type: cell-based; conditions: EF ATCC 29302
# Procedure: as §1, §2
# VRE ATCC 700221 (vanA) = assay type: cell-based, enterococci; conditions: VRE ATCC 700221 (vanA)
# Procedure: as §1, §2
# VRE ATCC 700425 (vanC) = assay type: cell-based, enterococci; conditions: VRE ATCC 700425 (vanC)
# Procedure: as §1, §2
# VRE ATCC 700802 (vanB) = assay type: cell-based, enterococci; conditions: VRE ATCC 700802 (vanB)
# Procedure: as §1, §2
# A. baumannii ATCC 19606 = assay type: cell-based, Acinetobacter baumannii; conditions: for MIC on AB: A. baumannii ATCC 19606
# Procedure: as §1, §2
# [1] = A. baumannii ATCC 19606, Table 3, first figure of cell
# [2] = A. baumannii ATCC 19606, Table 3, second figure of cell
SMILES,MIC (MRSA ATCC 43300) [mg/L],MIC (MRSA ATCC 700698 hVISA) [mg/L],MIC (MRSA ATCC 700787 VRSA) [mg/L],MIC (MRSA ATCC 700789 VRSA) [mg/L],MIC (MRSA ATCC BAA-38) [mg/L],MIC (MRSA ATCC BAA-39) [mg/L],MIC (MRSA ATCC BAA-44) [mg/L],MIC (S. aureus ATCC 29213) [mg/L],MIC (E. faecalis ATCC 29302) [mg/L],MIC (VRE ATCC 700221 (vanA)) [mg/L],MIC (VRE ATCC 700425 (vanC)) [mg/L],MIC (VRE ATCC 700802 (vanB)) [mg/L],MIC (A. baumannii ATCC 19606; [1]) [µM],MIC (A. baumannii ATCC 19606; [2]) [mg/L],MIC on AB (A. baumannii ATCC 19606) [mg/L]
N[C@H]1C(=O)N[C@@H]2Cc3ccc(c(Cl)c3)Oc3cc4cc(c3O)Oc3ccc(cc3Cl)[C@@H](O[C@@H]3O[C@H](CO)[C@@H](O)[C@H](O)[C@H]3NC(=O)CCCCCc3ccccc3)[C@@H]3NC(=O)[C@H](NC(=O)[C@@H]4NC(=O)[C@@H](NC2=O)c2cc(O)cc(c2)Oc2cc1ccc2O)c1ccc(O)c(c1)-c1c(O)cc(O)cc1[C@@H](C(=O)O)NC3=O [Compound 16],0.063,0.016,0.125,0.5,0.031,0.063,0.016,0.125,0.25,>16,1,0.25,–,–,–
CCCCCCCC(=O)NC1C(OC2c3ccc(c(Cl)c3)Oc3cc4cc(c3O)Oc3ccc(cc3Cl)CC3NC(=O)C(N)c5ccc(O)c(c5)Oc5cc(O)cc(c5)C(NC3=O)C(=O)NC4C(=O)NC3C(=O)NC2C(=O)NC(C(=O)O)c2cc(O)cc(OC4OC(CO)C(O)C(O)C4O)c2-c2cc3ccc2O)OC(CO)C(O)C1O (stereo not drawn) [Compound 26],0.125,0.031,0.5,0.5,0.125,0.016,0.016,0.016,0.5,>16,1,1,–,–,–
CN(C)[C@H]1C(=O)N[C@@H]2Cc3ccc(c(Cl)c3)Oc3cc4cc(c3O)Oc3ccc(cc3Cl)[C@@H](O[C@@H]3O[C@H](CO)[C@@H](O)[C@H](O)[C@H]3NC(=O)CCCCCCCN)[C@@H]3NC(=O)[C@H](NC(=O)[C@@H]4NC(=O)[C@@H](NC2=O)c2cc(O)cc(c2)Oc2cc1ccc2O)c1ccc(O)c(c1)-c1c(O)cc(O)cc1[C@@H](C(=O)O)NC3=O [Compound 22],–,0.125,0.063,–,–,–,–,0.031,1,>16,2,1,25,38.19,–
CN(C)[C@H]1C(=O)N[C@@H]2Cc3ccc(c(Cl)c3)Oc3cc4cc(c3O)Oc3ccc(cc3Cl)[C@@H](O[C@@H]3O[C@H](CO)[C@@H](O)[C@H](O)[C@H]3NC(=O)CCCCCCC[N+](C)(C)C)[C@@H]3NC(=O)[C@H](NC(=O)[C@@H]4NC(=O)[C@@H](NC2=O)c2cc(O)cc(c2)Oc2cc1ccc2O)c1ccc(O)c(c1)-c1c(O)cc(O)cc1[C@@H](C(=O)O)NC3=O [Compound 23],–,0.031,0.031,–,–,–,–,0.031,0.25,>16,2,1,50,78.52,78.52
N[C@H]1C(=O)N[C@@H]2Cc3ccc(c(Cl)c3)Oc3cc4cc(c3O)Oc3ccc(cc3Cl)[C@@H](O[C@@H]3O[C@H](CO)[C@@H](O)[C@H](O)[C@H]3NC(=O)CCc3ccccc3)[C@@H]3NC(=O)[C@H](NC(=O)[C@@H]4NC(=O)[C@@H](NC2=O)c2cc(O)cc(c2)Oc2cc1ccc2O)c1ccc(O)c(c1)-c1c(O)cc(O)cc1[C@@H](C(=O)O)NC3=O [Compound 15],0.031,0.016,0.031,0.5,0.016,0.016,0.016,0.031,0.25,>16,1,0.5,–,–,–
"NCCC[C@H](N)CC(=O)N[C@@H]1[C@H](O)[C@@H](OC(N)=O)[C@@H](CO)O[C@H]1NC1=N[C@@H]2C(=O)NC[C@@H](O)[C@H]2N1 [streptothricin F, reference compound]",–,–,–,–,–,–,–,–,–,–,–,–,12.5,6.28,–
CC(=O)NC1C(OC2c3ccc(c(Cl)c3)Oc3cc4cc(c3OC3OC(CO)C(O)C(O)C3NC(=O)CCCCCCCNC(=N)N)Oc3ccc(cc3Cl)CC3NC(=O)C(N(C)C)c5ccc(O)c(c5)Oc5cc(O)cc(c5)C(NC3=O)C(=O)NC4C(=O)NC3C(=O)NC2C(=O)NC(C(=O)O)c2cc(O)cc(OC4OC(CO)C(O)C(O)C4O)c2-c2cc3ccc2O)OC(CO)C(O)C1O (stereo not drawn) [Compound 27],–,–,–,–,–,–,–,–,–,–,–,–,50,96.73,–
"CN(C)[C@H]1C(=O)N[C@@H]2Cc3ccc(c(Cl)c3)Oc3cc4cc(c3O)Oc3ccc(cc3Cl)[C@@H](O[C@@H]3O[C@H](CO)[C@@H](O)[C@H](O)[C@H]3NC(=O)CCCCCCCNC(=N)NC(=N)N)[C@@H]3NC(=O)[C@H](NC(=O)[C@@H]4NC(=O)[C@@H](NC2=O)c2cc(O)cc(c2)Oc2cc1ccc2O)c1ccc(O)c(c1)-c1c(O)cc(O)cc1[C@@H](C(=O)O)NC3=O [Compound 25, r1,Me2-r6,C8-diguanidino-Tei]",–,–,–,–,–,–,–,–,–,–,–,–,25,40.29,39.24
CCCCCCCC(=O)N[C@H]1[C@H](O[C@@H]2c3ccc(c(Cl)c3)Oc3cc4cc(c3O)Oc3ccc(cc3Cl)C[C@H]3NC(=O)[C@H](N(C)C)c5ccc(O)c(c5)Oc5cc(O)cc(c5)[C@H](NC3=O)C(=O)N[C@H]4C(=O)N[C@H]3C(=O)N[C@@H]2C(=O)N[C@H](C(=O)O)c2cc(O)cc(O)c2-c2cc3ccc2O)O[C@H](CO)[C@@H](O)[C@@H]1O [Compound 20],0.063,0.016,0.016,0.5,0.016,0.016,0.016,0.016,0.25,>16,1,0.5,–,–,–
CN(C)[C@H]1C(=O)N[C@@H]2Cc3ccc(c(Cl)c3)Oc3cc4cc(c3O)Oc3ccc(cc3Cl)[C@@H](O[C@@H]3O[C@H](CO)[C@@H](O)[C@H](O)[C@H]3NC(=O)CCCCCCCO)[C@@H]3NC(=O)[C@H](NC(=O)[C@@H]4NC(=O)[C@@H](NC2=O)c2cc(O)cc(c2)Oc2cc1ccc2O)c1ccc(O)c(c1)-c1c(O)cc(O)cc1[C@@H](C(=O)O)NC3=O [Compound 21],–,0.063,0.125,–,–,–,–,0.125,1,>16,8,8,100,152.84,152.84
